Laboratory results published in ChEMBL document CHEMBL1151016, “Synthesis and evaluation of 3-deoxy-D-manno-2-octulosonate-8-phosphate (KDO8P) synthase inhibitors” (Bioorg Med Chem Lett, 1997).

Assay: The compound was tested for inhibitory activity against KDO 8-P synthase by using a KDO 8-P synthase enzymatic assay

Compound	IC50
O=P(O)(O)OC[C@H]1O[C@H](O)[C@H](O)[C@@H]1O	4.3 mM
O=C(O)C1=C[C@H](OCC(O)P(=O)(O)O)[C@H](O)[C@H](O)C1 (stereo partly drawn)	3.8 mM
O=C(O)C1=C[C@H](OCCP(=O)(O)O)[C@H](O)[C@H](O)C1	> 25 mM
